For the test, the target named is T1, RIPK1 (Homo sapiens, UniProt Q13546).
T1 construct: endogenous in cells
T1 sequence (Q13546 1-671): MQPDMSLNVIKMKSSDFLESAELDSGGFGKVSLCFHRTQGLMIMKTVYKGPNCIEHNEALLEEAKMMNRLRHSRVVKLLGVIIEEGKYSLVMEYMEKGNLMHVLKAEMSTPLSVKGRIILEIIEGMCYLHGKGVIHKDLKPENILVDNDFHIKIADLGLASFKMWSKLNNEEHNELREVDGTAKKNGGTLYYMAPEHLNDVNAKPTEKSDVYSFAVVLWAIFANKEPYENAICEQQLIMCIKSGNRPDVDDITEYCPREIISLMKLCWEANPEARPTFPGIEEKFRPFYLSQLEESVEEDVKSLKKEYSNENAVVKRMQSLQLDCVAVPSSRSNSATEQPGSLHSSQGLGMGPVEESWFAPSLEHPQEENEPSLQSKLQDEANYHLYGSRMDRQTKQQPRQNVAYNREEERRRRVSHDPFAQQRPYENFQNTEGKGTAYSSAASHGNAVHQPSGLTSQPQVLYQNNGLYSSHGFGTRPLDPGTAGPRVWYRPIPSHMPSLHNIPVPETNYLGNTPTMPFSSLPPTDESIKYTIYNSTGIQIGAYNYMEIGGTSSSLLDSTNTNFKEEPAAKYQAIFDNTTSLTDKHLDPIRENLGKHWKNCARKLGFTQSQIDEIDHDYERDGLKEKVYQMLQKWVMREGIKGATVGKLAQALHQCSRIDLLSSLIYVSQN
As to the kind of experiment: RIPK1 degradation Western Blot assay. It counts as cell-based. The note with it: human cells, 24 h incubation at 37° C., read-out: Degradation Activity (DC50, concentration at which 50% of RIPK1 kinase has been degraded). The procedure:
Cells were seeded in 6-well cell culture plates overnight prior to treatment and incubated with the indicated doses of compounds for 24 h at 37° C. Then, cell pellets were collected and resuspended with RIPA lysis buffer, which was added with 1% […] inhibitor and phosphatase inhibitor Cocktail. Whole-cell protein lysates were sonicated on ice for 20 seconds and centrifuged at 12 000 rpm for 20 min at 4° C. The supernatants were determined using the BCA method. Proteins were separated by sodium dodecyl sulfate-polyacrylamide gel electrophoresis and transferred to polyvinylidene fluoride membranes. The membranes were incubated with blocking buffer for 1 h. Then, the membranes were incubated at 4° C. overnight with the primary antibodies. After washing, the membranes were incubated for 1 h at room temperature with the secondary antibody and washed again. Changes in protein expression was detected using an enhanced chemiluminescence detection reagent. RIPK1 antibody was purchased from Santa Cruz.
The activities of exemplary compounds as described herein, measured in terms of the degradation concentration (DC50 representing the concentration at which 50% of the target, in this case RIPK1 kinase, has been degraded), are provided in Table 11. In Table 11, a DC50 value less than 1 μM is indicated as an “A;” a DC50 value from 1 μM to 10 μM is indicated as a “B” and a DC50 value of greater than 10 μM is indicated as a “C.”
(In general: In western blotting, separated proteins are transferred to a membrane and probed.)

Turning to `Cc1ncsc1-c1ccc([C@H](C)NC(=O)[C@@H]2C[C@@H](O)CN2C(=O)[C@@H](NC(=O)CCC(=O)NCCCn2cc(-c3ccc4c(c3)CCN4C(=O)Cc3cccc(OC(F)(F)F)c3)c3c(N)ncnc32)C(C)(C)C)cc1` [Compound 1, N1-(3-(4-amino-5-(1-(2-(3-(trifluoromethoxy)phenyl)acetyl)indolin-5-yl)-7H-pyrrolo[2,3-d]pyrimidin-7-yl)propyl)-N4-((S)-1-((2S,4R)-4-hydroxy-2-(((S)-1-(4-(4 methylthiazol-5-yl)phenyl)ethyl)carbamoyl)pyrrolidin-1-yl)-3,3-dimethyl-1-oxobutan-2-yl)succinimide], the DC50 is 1 to 10 µM.
The result for `Nc1ncnc2c1c(-c1ccc3c(c1)CCN3C(=O)Cc1cccc(OC(F)(F)F)c1)cn2CCCNC(=O)CCOCCOCCOCCNc1cccc2c1C(=O)C(C1CCC(=O)NC1=O)C2=O` (centres unmarked) [Compound 8, N-(3-(4-amino-5-(1-(2-(3-(trifluoromethoxy)phenyl)acetyl)indolin-5-yl)-7H-pyrrolo[2,3-d]pyrimidin-7-yl)propyl)-3-(2-(2-(2-((2-(2,6-dioxopiperidin-3-yl)-1,3-dioxo-2,3-dihydro-1H-inden-4-yl)amino)ethoxy)ethoxy)ethoxy)propanamide] reads 1 to 10 µM; that for `Nc1ncnc2c1c(-c1ccc3c(c1)CCN3C(=O)Cc1cccc(OC(F)(F)F)c1)cn2CCCNC(=O)CCCCCCCCNC(=O)[C@@H]1NC2(CCCCC2)[C@@]2(C(=O)Nc3cc(Cl)ccc32)[C@H]1c1cccc(Cl)c1F` [Compound 10, (3′R,4'S,5′R)-N-(9-((3-(4-amino-5-(1-(2-(3-(trifluoromethoxy)phenyl)acetyl)indolin-5-yl)-7H-pyrrolo[2,3-d]pyrimidin-7-yl)propyl)amino)-9-oxononyl)-6″-chloro-4′-(3-chloro-2-fluorophenyl)-2″-oxodispiro[cyclohexane-1,2′-pyrrolidine-3′,3″-indoline]-5′-carboxamide], 1 to 10 µM.
Take `O=C1CCC(C2C(=O)c3cccc(NCCOCCOCCOCCC(=O)N4CCC(C(=O)N5N=CCC5c5ccccc5)CC4)c3C2=O)C(=O)N1` (centres unmarked) [Compound 11]: the DC50 is > 10 µM.
Take `O=C1CCC(C2C(=O)c3cccc(NCCOCCOCCC(=O)N4CCC(C(=O)N5N=CCC5c5ccccc5)CC4)c3C2=O)C(=O)N1` (centres unmarked) [Compound 12]: the DC50 was > 10 µM.
Regarding `Cc1ncsc1-c1ccc([C@H](C)NC(=O)[C@@H]2C[C@@H](O)CN2C(=O)[C@@H](NC(=O)CCCCCCCCC(=O)N2CCC(C(=O)N3N=CCC3c3ccccc3)CC2)C(C)(C)C)cc1` (stereo partly drawn) [Compound 13, (2S,4R)-1-((2S)-3,3-dimethyl-2-(10-oxo-10-(4-(5-phenyl-4,5-dihydro-1H-pyrazole-1-carbonyl)piperidin-1-yl)decanamide)butanoyl)-4-hydroxy-N—((S)-1-(4-(4-methylthiazol-5-yl)phenyl)ethyl)pyrrolidine-2-carboxamide], the DC50 is > 10 µM.
The result for `O=C(NCCOCCC(=O)N1CCC(C(=O)N2N=CCC2c2ccccc2)CC1)[C@@H]1NC2(CCCCC2)[C@@]2(C(=O)Nc3cc(Cl)ccc32)[C@H]1c1cccc(Cl)c1F` (stereo partly drawn) [Compound 15, (3′R,4'S,5′R)-6″-chloro-4′-(3-chloro-2-fluorophenyl)-2″-oxo-N-(2-(3-oxo-3-(4-(5-phenyl-4,5-dihydro-1H-pyrazole-1-carbonyl)piperidin-1-yl)propoxy)ethyl)dispiro[cyclohexane-1,2′-pyrrolidine-3′,3″-indoline]-5′-carboxamide] reads 1 to 10 µM.
With `O=C1CCC(N2C(=O)c3cccc(NCCOCCOCCOCCNC(=O)c4ccnc(N5CCC(C(=O)N6N=CCC6c6ccccc6)CC5)n4)c3C2=O)C(=O)N1` (centres unmarked) [Compound 19, N-(2-(2-(2-(2-((2-(2,6-dioxopiperidin-3-yl)-1,3-dioxoisoindolin-4-yl)amino)ethoxy)ethoxy)ethoxy)ethyl)-2-(4-(5-phenyl-4,5-dihydro-1H-pyrazole-1-carbonyl)piperidin-1-yl)pyrimidine-4-carboxamide], the DC50 fell in the range of 1 to 10 µM.
Turning to `O=C(NCCOCCOCCOCCNC(=O)[C@@H]1NC2(CCCCC2)[C@@]2(C(=O)Nc3cc(Cl)ccc32)[C@H]1c1cccc(Cl)c1F)c1ccnc(N2CCC(C(=O)N3N=CCC3c3ccccc3)CC2)n1` (stereo partly drawn) [Compound 20, (3′R,4'S,5′R)-6″-chloro-4′-(3-chloro-2-fluorophenyl)-2″-oxo-N-(1-oxo-1-(2-(4-(5-phenyl-4,5-dihydro-1H-pyrazole-1-carbonyl)piperidin-1-yl)pyrimidin-4-yl)-5,8,11-trioxa-2-azatridecan-13-yl)dispiro[cyclohexane-1,2′-pyrrolidine-3′,3″-indoline]-5′-carboxamide], the DC50 lay in the range of 1 to 10 µM.
The result for `O=C1CCC(N2C(=O)c3cccc(NCCOCCOCCOCCNC(=O)c4ccc(-c5cc(N6CCC(C(=O)N7N=CCC7c7ccccc7)CC6)ncn5)cc4)c3C2=O)C(=O)N1` (centres unmarked) [Compound 21, N-(2-(2-(2-(2-((2-(2,6-dioxopiperidin-3-yl)-1,3-dioxoisoindolin-4-yl)amino)ethoxy)ethoxy)ethoxy)ethyl)-4-(6-(4-(5-phenyl-4,5-dihydro-1H-pyrazole-1-carbonyl)piperidin-1-yl)pyrimidin-4-yl)benzamide] reads > 10 µM; that for `Cc1ncsc1-c1ccc([C@H](C)NC(=O)[C@@H]2C[C@@H](O)CN2C(=O)[C@@H](NC(=O)CCOCCOCCOCCNC(=O)c2ccc(-c3cc(N4CCC(C(=O)N5N=CCC5c5ccccc5)CC4)ncn3)cc2)C(C)(C)C)cc1` (stereo partly drawn) [Compound 23, (2S,4R)-1-((16S)-16-(tert-butyl)-1,14-dioxo-1-(4-(6-(4-(5-phenyl-4,5-dihydro-1H-pyrazole-1-carbonyl)piperidin-1-yl)pyrimidin-4-yl)phenyl)-5,8,11-trioxa-2,15-diazaheptadecane-17-oyl)-4-hydroxy-N—((S)-1-(4-(4-methylthiazol-5-yl)phenyl)ethyl)pyrrolidine-2-carboxamide], > 10 µM.
Then `Cc1ncsc1-c1ccc([C@H](C)NC(=O)[C@@H]2C[C@@H](O)CN2C(=O)[C@@H](NC(=O)CCOCCOCCOCCOCCn2cc(-c3ccc4c(c3)CCN4C(=O)Cc3cccc(OC(F)(F)F)c3)c3c(N)ncnc32)C(C)(C)C)cc1` [Compound 29, (2S,4R)-1-((S)-1-(4-amino-5-(1-(2-(3-(trifluoromethoxy)phenyl)acetyl)indolin-5-yl)-7H-pyrrolo[2,3-d]pyrimidin-7-yl)-17-(tert-butyl)-15-oxo-3,6,9,12-tetraoxa-16-azaoctadecan-18-oyl)-4-hydroxy-N—((S)-1-(4-(4-methylthiazol-5-yl)phenyl)ethyl)pyrrolidine-2-carboxamide], with < 1 µM; and `Cc1ncsc1-c1ccc([C@H](C)NC(=O)[C@@H]2C[C@@H](O)CN2C(=O)[C@@H](NC(=O)CCc2ccc(C#Cc3ccc(C(=O)NCCCn4cc(-c5ccc6c(c5)CCN6C(=O)Cc5cccc(OC(F)(F)F)c5)c5c(N)ncnc54)cc3)cn2)C(C)(C)C)cc1` [Compound 33], with < 1 µM.
Then `Cc1ncsc1-c1ccc([C@H](C)NC(=O)[C@@H]2C[C@@H](O)CN2C(=O)[C@@H](NC(=O)CCc2ccc(C#Cc3ccc(CCC(=O)NCCCn4cc(-c5ccc6c(c5)CCN6C(=O)Cc5cccc(OC(F)(F)F)c5)c5c(N)ncnc54)cc3)cn2)C(C)(C)C)cc1` [Compound 34], with < 1 µM; and `Cc1ncsc1-c1ccc([C@H](C)NC(=O)[C@@H]2C[C@@H](O)CN2C(=O)[C@@H](NC(=O)c2ccc(C#Cc3ccc(C(=O)NCCCn4cc(-c5ccc6c(c5)CCN6C(=O)Cc5cccc(OC(F)(F)F)c5)c5c(N)ncnc54)cc3)cn2)C(C)(C)C)cc1` [Compound 35], with < 1 µM; and `Cc1ncsc1-c1ccc([C@H](C)NC(=O)[C@@H]2C[C@@H](O)CN2C(=O)[C@@H](NC(=O)CCN2CCC(C#Cc3ccc(C(=O)NCCCn4cc(-c5ccc6c(c5)CCN6C(=O)Cc5cccc(OC(F)(F)F)c5)c5c(N)ncnc54)cc3)CC2)C(C)(C)C)cc1` [Compound 36], with < 1 µM.
As for `Cc1ncsc1-c1ccc([C@H](C)NC(=O)[C@@H]2C[C@@H](O)CN2C(=O)[C@@H](NC(=O)CCN2CC3(CC(Oc4ccc(C(=O)NCCCn5cc(-c6ccc7c(c6)CCN7C(=O)Cc6cccc(OC(F)(F)F)c6)c6c(N)ncnc65)cn4)C3)C2)C(C)(C)C)cc1` [Compound 38], the DC50 lay in the range of 1 to 10 µM.

(Values after patent US20240123073A1, “NOVEL RIPK1 KINASE TARGETING PROTACS AND METHODS OF USE THEREOF” (Baylor College of Medicine, priority 2020, published 2024).)
